Tests used:
[1] = target: T1, PAF Receptor (Oryctolagus cuniculus, UniProt G1TEI7); test: % Inhibition of PAF Receptor (published bioassay, Table I); format: binding
T1 construct: from tissue
Text: See. T. Y. Shen et al., Proc. Nat. Acad. Sci., U.S.A., 82, 672 (1985); and S. B. Hwang et al., Biochem., 22, 4756 (1983).
% Inhibition of PAF Receptor by the Compounds of […]

[2] = system: man; settings: in man, 0.1 μg per site; cited from earlier work

T1 sequence (G1TEI7 1-342): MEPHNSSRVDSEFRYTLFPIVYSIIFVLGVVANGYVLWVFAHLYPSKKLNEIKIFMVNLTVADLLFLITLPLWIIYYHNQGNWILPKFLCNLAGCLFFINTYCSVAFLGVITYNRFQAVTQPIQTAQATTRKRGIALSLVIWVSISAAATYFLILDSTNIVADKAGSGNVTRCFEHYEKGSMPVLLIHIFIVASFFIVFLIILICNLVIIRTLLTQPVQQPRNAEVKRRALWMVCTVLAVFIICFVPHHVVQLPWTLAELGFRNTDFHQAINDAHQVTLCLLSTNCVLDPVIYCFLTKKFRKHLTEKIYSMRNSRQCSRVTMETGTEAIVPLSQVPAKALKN

For `C=CCC1=C[C@]2(OCC)C(=CC1=O)O[C@H](c1ccc(OC)c(OC)c1)[C@@H]2C` [(2S,3S,3aR)-5-allyl-2-(3,4-dimethoxyphenyl)-3a-ethoxy-3-methyl-2,3,3a,6-tetrahydro-6-oxo-benzofuran], the inhibition at 1 µM [1] was 45% and the inhibition at 5 µM [1] was 73%.
With `CCCC1=C[C@]2(OC)C(=CC1=O)O[C@H](c1ccc(OC)c(OC)c1)[C@@H]2C` (single isomer, unassigned) the inhibition at 1 µM [1] was 31% and the inhibition at 5 µM [1] was 61%.
In the case of “1-O-hexadecyl/octadecyl-2-O-acetyl-sn-glycero-3-phosphorylcholine [PAF]”, the “inflammatory response to intradermal PAF” value [2] is given as “biphasic inflammatory response”.
`CCCC1=C[C@@]2(OC)C(=CC1=O)O[C@H](c1ccc(OC)c(OC)c1)[C@@H]2C` [(2S,3S,3aS)-2-(3,4-dimethoxyphenyl)-3a-methoxy-3-methyl-5-n-propyl-2,3,3a,6-tetrahydro-6-oxo-benzofuran] showed an inhibition at 0.03 µM ([1]; Dose 0.03 μM) of 30 to 33%, an inhibition at 0.1 µM ([1]; Dose 0.1 μM) of 58 to 59% and an inhibition at 0.3 µM [1] of 73 to 76%. The inhibition at 1 µM [1] was 83 to 89% and the inhibition at 5 µM [1] was 90 to 95%.
`C=CCC1=C2OC(c3ccc(OC)c(OC)c3)C(C)C2(OC)C=CC1=O` (centres unmarked) gave an inhibition at 1 µM [1] of 26% and an inhibition at 5 µM [1] of 57%.
With `C=CCC1=C[C@@]2(OCC)C(=CC1=O)O[C@H](c1ccc(OC)c(OC)c1)[C@@H]2C` [(2S,3S,3aS)-5-allyl-2-(3,4-dimethoxyphenyl)-3a-ethoxy-3-methyl-2,3,3a,6-tetrahydro-6-oxo-benzofuran] the inhibition at 0.3 µM [1] was 42% and the inhibition at 1 µM [1] was 68%.

Source: patent US4704462A, “Substituted 2,3,3a,6-tetrahydro-6-oxobenzofuran derivative useful as PAF antagonist” (Merck & Co., Inc., priority 1985, dated 1987)
